Test results taken from patent publication US8389527B2, “Substituted imidazopyridazines useful as kinase inhibitors” (Bristol-Myers Squibb Company, priority 2008, dated 2013).

Columns and labels:
[1] = target: T1, recombinant CK2A2 (Homo sapiens, UniProt P19784); experiment: CK2 kinase assay (CK2A2), [γ-33P]ATP filter-binding; assay type: biochemical; details: recombinant CK2A2 5 nM, ATP 5 μM, 10 μM peptide substrate, 30° C. 1 h
T1 construct: purchased Upstate Biotechnology
Method: (§1) The effectiveness of compounds of the present invention as inhibitors of protein kinases can be readily tested by assays known to those skilled in the art. For example, in vitro protein kinase assays may be conducted with a relevant purified protein kinase and an appropriate synthetic substrate to determine the inhibitory activities of the compounds. […] Reaction mixtures were incubated at 30° C. for 1 h, and reaction products were captured by binding to phosphocellulose (P81) filter plates. Incorporation of radioactive phosphate into the peptide substrate was determined by liquid scintillation counting. The potency of compounds in inhibiting CK2 is expressed as IC50, defined as the concentrations of compounds required to inhibit the enzymatic activity by 50%.

[2] = target: T2, recombinant CK2A1 (Homo sapiens, UniProt P68400); experiment: CK2 kinase assay (CK2A1), [γ-33P]ATP filter-binding; assay type: biochemical; details: recombinant CK2A1 10 nM, ATP 25 μM, 10 μM peptide substrate, 30° C. 1 h
T2 construct: purchased Invitrogen
T2 sequence (P68400 whole entry): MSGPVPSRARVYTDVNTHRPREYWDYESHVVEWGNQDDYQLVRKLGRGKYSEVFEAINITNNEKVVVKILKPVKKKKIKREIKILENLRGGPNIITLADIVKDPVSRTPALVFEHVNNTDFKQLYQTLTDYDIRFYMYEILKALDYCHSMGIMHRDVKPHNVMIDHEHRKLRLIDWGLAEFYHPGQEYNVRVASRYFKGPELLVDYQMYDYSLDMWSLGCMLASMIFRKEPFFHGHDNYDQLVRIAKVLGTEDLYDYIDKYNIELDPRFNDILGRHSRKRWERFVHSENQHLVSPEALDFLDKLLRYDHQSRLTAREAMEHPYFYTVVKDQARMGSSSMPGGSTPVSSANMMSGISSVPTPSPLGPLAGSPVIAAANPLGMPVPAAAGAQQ
Method: as §1

[3] = system: HCT116; experiment: Cell proliferation inhibition assay (MTT, CellTiter96); assay type: cell-based; details: Homo sapiens, HCT-116; HCT116 cells, 72 h with compound, MTT readout
Method: B. Cell Proliferation Inhibition Assay
Compounds were evaluated for their ability to inhibit cell proliferation, using an assay that measures mitochondrial metabolic activity, that is directly correlated with cell numbers. Cells were plated at 2000 cells/well in 96-well plates and were cultured for 24 h in RPMI-1640 supplemented with 2% fetal bovine serum, before test compounds were added. Compounds were diluted in culture medium such that the final concentration of dimethyl sulfoxide never exceeded 1%. Following the addition of compounds, the cells were cultured for an additional 72 h before cell viability was determined by measuring the conversion of 3-(4,5-dimethylthiazol-2-yl)-2,5-diphenyltetrazolium bromide (MTT) dye using the CellTiter96 kit (Promega).

T1 sequence (P19784 whole entry): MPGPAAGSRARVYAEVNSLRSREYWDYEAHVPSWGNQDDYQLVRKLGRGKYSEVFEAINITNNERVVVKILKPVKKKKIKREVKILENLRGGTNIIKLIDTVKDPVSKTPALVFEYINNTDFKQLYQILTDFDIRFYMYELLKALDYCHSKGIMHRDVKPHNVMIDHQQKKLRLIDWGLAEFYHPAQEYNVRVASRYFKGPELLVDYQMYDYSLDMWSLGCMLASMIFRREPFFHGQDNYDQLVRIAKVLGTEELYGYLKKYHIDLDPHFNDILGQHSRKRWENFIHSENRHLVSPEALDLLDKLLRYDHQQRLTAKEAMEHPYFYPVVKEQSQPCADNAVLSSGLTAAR

Row | SMILES | IC50 [1] | IC50 [2] | IC50 [3]
1 | O=C(Nc1ccnc(F)c1)c1cnc2c(NC3CC3)cc(N[C@H]3CC[C@H](NC(=O)C4CCCNC4)CC3)nn12 (stereo partly drawn) [Example 144, 8-(cyclopropylamino)-N-(2-fluoro-4-pyridinyl)-6-((trans-4-((3-piperidinylcarbonyl)amino)cyclohexyl)amino) imidazo[1,2-b]pyridazine-3-carboxamide] | 70 nM | 183 nM | > 2500 nM
2 | O=C(Nc1ccncc1F)c1cnc2c(NC3CC3)cc(NC3CCCC3)nn12 [Example 333, 6-(cyclopentylamino)-8-(cyclopropylamino)-N-(3-fluoro-4-pyridinyl)imidazo[1,2-b] pyridazine-3-carboxamide] | 5 nM | 26 nM | 220 nM
3 | N[C@H]1CC[C@H](Nc2cc(Nc3ncccc3O)c3ncc(C(=O)Nc4ccncc4)n3n2)CC1 [Example 378, 6-((trans-4-aminocyclohexyl)amino)-8-((3-hydroxy-2-pyridinyl)amino)-N-4-pyridinyl-imidazo[1,2-b]pyridazine-3-carboxamide] | 290 nM | 205 nM | > 1000 nM
4 | N[C@H]1CC[C@H](Nc2cc(NC3CC3)c3ncc(C(=O)Nc4ccncc4)n3n2)CC1 [Example 390, 6-((trans-4-aminocyclohexyl)amino)-8-(cyclopropylamino)-N-4-pyridinylimidazo [1,2-b]pyridazine-3-carboxamide] | 6 nM | 15 nM | 300 nM
5 | N[C@H]1CC[C@H](Nc2cc(Nc3ccc(CN4CCOCC4)cc3)c3ncc(C(=O)Nc4ccncc4)n3n2)CC1 [Example 414, 6-((trans-4-aminocyclohexyl)amino)-8-((4-(4-morpholinylmethyl)phenyl)amino)-N-4-pyridinylimidazo[1,2-b]pyridazine-3-carboxamide] | 47 nM | 115 nM | 540 nM
6 | N[C@H]1CC[C@H](Nc2cc(NC3CC3)c3ncc(C(=O)Nc4ccncc4F)n3n2)CC1 [Example 468, 6-((trans-4-aminocyclohexyl)amino)-8-(cyclopropylamino)-N-(3-fluoro-4-pyridinyl)imidazo [1,2-b]pyridazine-3-carboxamide] | 3 nM | 7 nM | 90 nM
7 | N[C@H]1CC[C@H](Nc2cc(NC3CCC3)c3ncc(C(=O)Nc4ccncc4F)n3n2)CC1 [Example 469, 6-((trans-4-aminocyclohexyl)amino)-8-(cyclobutylamino)-N-(3-fluoro-4-pyridinyl)imidazo [1,2-b]pyridazine-3-carboxamide] | 5 nM | 19 nM | 50 nM
8 | N[C@H]1CC[C@H](Nc2cc(N[C@H]3C[C@@H](CO)C3)c3ncc(C(=O)Nc4ccncc4F)n3n2)CC1 [Example 476, 6-((trans-4-aminocyclohexyl)amino)-N-(3-fluoro-4-pyridinyl)-8-((cis-3-(hydroxymethyl)cyclobutyl)amino) imidazo[l,2-b]pyridazine-3-carboxamide] | 46 nM | 43 nM | 2310 nM
9 | N[C@H]1CC[C@H](Nc2cc(Nc3cccc(N4CCNCC4)n3)c3ncc(C(=O)Nc4ccncc4F)n3n2)CC1 [Example 481, 6-((trans-4-aminocyclohexyl)amino)-N-(3-fluoro-4-pyridinyl)-8-((6-(1-piperazinyl)-2-pyridinyl)amino)imidazo [1,2-b]pyridazine-3-carboxamide] | 34 nM | 121 nM | > 2500 nM

These reach a lower IC50 [1]. Values come first.

Row | IC50 [1] | IC50 [2] | IC50 [3] | SMILES
10 | 1.5 nM | 25.9 nM | 590 nM | C[C@H](CN)C(=O)N[C@H]1CC[C@H](Nc2cc(NC3CC3)c3ncc(C(=O)Nc4ccnc(Cl)c4)n3n2)CC1 [Example 146, 6-((trans-4-(((2R)-3-amino-2-methylpropanoyl)amino)cyclohexyl)amino) N-(2-chloro-4-pyridinyl)-8-(cyclopropylamino)imidazo [1,2-b]pyridazine-3-carboxamide]
11 | 2.1 nM | 34.1 nM | 280 nM | CNC(C)(C)C(=O)N[C@H]1CC[C@H](Nc2cc(NC3CC3)c3ncc(C(=O)Nc4ccnc(Cl)c4)n3n2)CC1 [Example 159, N-(2-chloro-4-pyridinyl)-8-(cyclopropylamino)-6-((trans-4-((N,2-dimethylalanyl)amino)cyclohexyl)amino) imidazo[1,2-b]pyridazine-3-carboxamide]
12 | 0.4 nM | 29.6 nM | 560 nM | NCC(=O)N[C@H]1CC[C@H](Nc2cc(NC3CC3)c3ncc(C(=O)Nc4ccnc(Cl)c4)n3n2)CC1 [Example 163, N-(2-chloro-4-pyridinyl)-8-(cyclopropylamino)-6-((trans-4-(glycylamino)cyclohexyl)amino)imidazo [1,2-b]pyridazine-3-carboxamide]
13 | 2.1 nM | 22.8 nM | > 2500 nM | CC(C)CC(=O)N[C@H]1CC[C@H](Nc2cc(NC3CC3)c3ncc(C(=O)Nc4ccnc(Cl)c4)n3n2)CC1 [Example 164, N-(2-chloro-4-pyridinyl)-8-(cyclopropylamino)-6-((trans-4-((3-methylbutanoyl)amino)cyclohexyl)amino) imidazo[1,2-b]pyridazine-3-carboxamide]
14 | 0.4 nM | 26.5 nM | > 2500 nM | COCC(=O)N[C@H]1CC[C@H](Nc2cc(NC3CC3)c3ncc(C(=O)Nc4ccnc(Cl)c4)n3n2)CC1 [Example 167, N-(2-chloro-4-pyridinyl)-8-(cyclopropylamino)-6-((trans-4-((methoxyacetyl)amino)cyclohexyl)amino) imidazo[1,2-b]pyridazine-3-carboxamide]
15 | 0.9 nM | 37.3 nM | 360 nM | N[C@@H](C(=O)N[C@H]1CC[C@H](Nc2cc(NC3CC3)c3ncc(C(=O)Nc4ccnc(Cl)c4)n3n2)CC1)c1ccccc1 [Example 172, 6-((trans-4-(((2R)-2-amino-2-phenylacetyl)amino)cyclohexyl)amino)-N-(2-chloro-4-pyridinyl)-8-(cyclopropylamino)imidazo [1,2-b]pyridazine-3-carboxamide]
16 | 1.7 nM | 17.4 nM | 220 nM | C[C@@H](O)CC(=O)N[C@H]1CC[C@H](Nc2cc(NC3CC3)c3ncc(C(=O)Nc4ccnc(Cl)c4)n3n2)CC1 [Example 195, N-(2-chloro-4-pyridinyl)-8-(cyclopropylamino)-6-((trans-4-(((3R)-3-hydroxybutanoyl)amino)cyclohexyl)amino) imidazo[1,2-b]pyridazine-3-carboxamide]
17 | 0.8 nM | 13.5 nM | 230 nM | N[C@@H](CO)C(=O)N[C@H]1CC[C@H](Nc2cc(NC3CC3)c3ncc(C(=O)Nc4ccnc(Cl)c4)n3n2)CC1 [Example 197, N-(2-chloro-4-pyridinyl)-8-(cyclopropylamino)-6-((trans-4-(L-serylamino)cyclohexyl)amino)imidazo [1,2-b]pyridazine-3-carboxamide]
18 | 1.5 nM | 3.6 nM | 90 nM | O=C(Nc1ccnc(Cl)c1)c1cnc2c(NC3CC3)cc(N[C@H]3CC[C@H](NC(=O)C4COCCN4)CC3)nn12 (stereo partly drawn) [Example 198, N-(2-chloro-4-pyridinyl)-8-(cyclopropylamino)-6-((trans-4-((3-morpholinylcarbonyl)amino)cyclohexyl)amino)imidazo [1,2-b]pyridazine-3-carboxamide]
19 | 1.7 nM | 9.5 nM | 430 nM | N[C@H](Cc1cccnc1)C(=O)N[C@H]1CC[C@H](Nc2cc(NC3CC3)c3ncc(C(=O)Nc4ccnc(Cl)c4)n3n2)CC1 [Example 202, N-(2-chloro-4-pyridinyl)-8-(cyclopropylamino)-6-((trans-4-((3-(3-pyridinyl)-D-alanyl)amino)cyclohexyl)amino)imidazo [1,2-b]pyridazine-3-carboxamide]
20 | 0.8 nM | 1.9 nM | 400 nM | CN(C)[C@H]1CCN(C(=O)N[C@H]2CC[C@H](Nc3cc(NC4CC4)c4ncc(C(=O)Nc5ccnc(Cl)c5)n4n3)CC2)C1 [Example 272, N-(2-chloro-4-pyridinyl)-8-(cyclopropylamino)-6-((trans-4-((((3S)-3-(dimethylamino)-1-pyrrolidinyl)carbonyl)amino)cyclohexyl)amino) imidazo[1,2-b]pyridazine-3-carboxamide]
21 | 1.1 nM | 15.5 nM | 160 nM | COCCNC(=O)N[C@H]1CC[C@H](Nc2cc(NC3CC3)c3ncc(C(=O)Nc4ccnc(Cl)c4)n3n2)CC1 [Example 276, N-(2-chloro-4-pyridinyl)-8-(cyclopropylamino)-6-((trans-4-(((2-methoxyethyl)carbamoyl)amino)cyclohexyl)amino)imidazo [1,2-b]pyridazine-3-carboxamide]
22 | 1.5 nM | 62.6 nM | 500 nM | CCN(C)C(=O)N[C@H]1CC[C@H](Nc2cc(NC3CC3)c3ncc(C(=O)Nc4ccnc(Cl)c4)n3n2)CC1 [Example 278, N-(2-chloro-4-pyridinyl)-8-(cyclopropylamino)-6-((trans-4-((ethyl(methyl)carbamoyl)amino)cyclohexyl)amino)imidazo[1,2-b]pyridazine-3-carboxamide]
